These results are taken from patent publication KR20140032201A, “로리오라이드를 유효성분으로 함유하는 세포 노화 억제용 조성물” (영남대학교 산학협력단, priority 2012, dated 2014).

Where two headings read alike, the source gives them in different places.

Data set [1] deals with cellular senescence (세포노화). The conditions noted are these: cited from earlier work.
Data set [2] has as its system Caenorhabditis elegans (꼬마선충). The conditions noted are these: C. elegans, literature; cited from earlier work.
Data set [3] has as its system mouse model (생쥐모델). The conditions noted are these: literature; cited from earlier work.
In data set [4] the test system is human umbilical vein endothelial cells (제대정맥혈관내피세포). Kind of data set: MTT cytotoxicity, umbilical vein endothelial cells. It is filed as cell-based. As to conditions: 10 ug/ml.
For data set [5] the test system is unchanged. The data set can be described thus: Adriamycin-induced senescence, SA-β-gal activity staining, umbilical vein endothelial cells. It counts as cell-based. As to conditions: 500 nM adriamycin 4 h, then 10 ug/ml, 3 days.
The test system of data set [6] is human fibroblasts (사람 섬유아세포). Kind of data set: Adriamycin-induced senescence, SA-β-gal activity staining, human fibroblasts. It is filed as cell-based.
Data set [7] deals with human fibroblasts with replicative senescence (복제노화가 유도된 사람 섬유아세포). Kind of data set: Replicative senescence, SA-β-gal activity staining, old human fibroblasts. It is filed as cell-based. As to conditions: increasing concentrations.
For data set [8], the system named is reactive oxygen species in human fibroblasts (활성산소, 사람 섬유아세포). The data set can be described thus: Intracellular reactive oxygen species by DCF flow cytometry, adriamycin-treated human fibroblasts. It is filed as cell-based. The conditions noted are these: 500 nM adriamycin 4 h, 3 days, DCF fluorescence.
The subject of data set [9] is human fibroblasts (사람 섬유아세포). Kind of data set: MTT cytotoxicity, human fibroblasts. It is filed as cell-based. The conditions noted are these: 10 ug/ml.

With `O=C1O[C@H]([C@@H](O)CO)C(O)=C1O` [비타민 C], the “inhibition of cellular senescence” value in data set [1] (literature) is on record as “세포노화를 억제한다”.

Regarding `Nc1ccc(S(=O)(=O)c2ccc(N)cc2)cc1` [4,4'-diaminodiphenylsulfone], in data set [2], the healthspan entry is on record as “건강수명을 늘리는” and the “occurrence of ageing-related diseases” value is “노화관련 질환의 발생을 억제하며”.

For `CO[C@H]1C[C@@H]2CC[C@@H](C)[C@@](O)(O2)C(=O)C(=O)N2CCCC[C@H]2C(=O)O[C@H]([C@H](C)C[C@@H]2CC[C@@H](O)[C@H](OC)C2)CC(=O)[C@H](C)/C=C(\C)[C@@H](O)[C@@H](OC)C(=O)[C@H](C)C[C@H](C)/C=C/C=C/C=C/1C` [라파마이신(rapamycin), rapamycin], in [1] (literature), the “inhibition of cellular senescence” value is listed as “세포노화 억제 효능이 있는 것으로 보고된”. Also, in data set [3], the healthspan entry was “건강수명을 늘리는” and the “occurrence of ageing-related diseases” value is “노화관련 질환의 발생을 억제하며”.

On to `CC1(C)CC(O)CC2(C)OC(=O)C=C12` (single isomer, unassigned; (-)) [로리오라이드[(-)-loliolide], (-)-loliolide], for which the “cytotoxicity (MTT)” value in [4] and in [9] was “세포독성이 관찰되지 않았다” each time. For the same molecule, the “SA-β-gal activity staining increased by adriamycin” value in data set [5] was “변화가 없었다”; in [6] (500 nM adriamycin 4 h, then 10 ug/ml, 3 days), “감소되었으나”. In addition, the “concentration dependence of inhibition of adriamycin-increased SA-β-gal activity” value in [6] (increasing concentrations) is listed as “농도를 증가시킬수록 감소함”. Further, the “SA-β-gal activity increased in old cells (replicative senescence)” value in [7] is reported as “농도 의존적으로 늙은 세포에서 증가된 SA-β-gal 활성을 감소시킴”. Further, the “reactive oxygen species increased by adriamycin” value in [8] is listed as “활성산소도 감소시킴”.

`CS(=O)(=O)Nc1ccc([N+](=O)[O-])cc1OC1CCCCC1` [NS398]: the “inhibition of cellular senescence” value in data set [1] (literature) is listed as “세포노화를 억제한다”.

For the molecule `CC(=O)N[C@@H](CS)C(=O)O` [N-아세틸시스테인(N-acetylcysteine), N-acetylcysteine], the “inhibition of cellular senescence” value in [1] (literature; NAC)) is “세포노화 억제 효능이 있는 것으로 보고된”; in data set [1] (literature) it was “세포노화를 억제한다”.

As for “epifriedelanol [에피프리에델라놀(epifriedelanol)]”, the “inhibition of cellular senescence” value in [1] (literature) is “세포노화를 억제한다”.
